This note sets out measurements from a melting point compilation (Tetko et al.; mined from patent text by program, amines drawn as free bases though some values may be those of a salt).

The melting point is the temperature of the solid-liquid transition.

A value given as a limit tells only on which side of the number the result lay.

As for `Cc1c(N2CC(F)C(CN)C2)c(F)cc2c(=O)n(N)c(=O)n(C3CC3)c12` (stereo not drawn), the melting point was 170 to 172 °C.
The molecule `COc1ccc2c(c1)sc1c(C(=O)Nc3nnn[nH]3)cnc(=O)n12` yielded a melting point of 234 to 235 °C.
On to `CSc1ccc(-c2ccc(C(F)(F)F)cc2)nc1F`, for which the melting point is 70 to 73 °C.
The same measure for `Cc1cc(C(O)=S)c(Cl)cc1Cl`: 187 °C; for `CCNC1=C(c2ccc(O)cc2)C(=O)c2cc(O)ccc21`: 250 °C.
`CCOC(=O)Cc1sc(NC(=O)Nc2ccccc2)nc1-c1ccc(Cl)cc1`: the melting point lay within 192 to 193 °C.
In the case of `CCNC(=S)NCc1cccc2c1C(=O)N(C1CCC(=O)NC1=O)C2=O` (stereo not drawn) it was 154 to 156 °C; in that of `CCc1noc(-c2cc3c(cn2)[nH]c2cccc(Oc4ncccn4)c23)n1`, 254 to 256 °C; in that of `CCOC(=O)c1cc2n(c1)CN(C(=O)OCC)c1ccccc1-2`, 80 to 82 °C.
In turn, `CC(=O)Nc1nc2c(s1)C(=O)C(Br)CC2` (stereo not drawn) returned a melting point of 180 to 182 °C.
`N#Cc1cc(F)c(-n2c(=O)cc(C(F)(F)F)[nH]c2=O)cc1Oc1cccc2c(O)cccc12` had a melting point of 168 °C.
In the case of `CS(=O)(=O)Nc1ccc(C=C2c3ccccc3CCc3ccccc32)cc1` it was 211 °C; in that of `COc1ccc2nc3c(c(-c4ccc(F)cc4)c2c1)CNC3=O`, 284 to 286 °C.
`Nc1ccc(Cl)c(S(=O)c2ccccc2)c1` (stereo not drawn) displayed a melting point of 152 to 155 °C.
The same measure for `Cn1ncc(C=O)c1-c1ccoc1`: 70 to 71 °C; for `O=C(O)c1cc2c(cc1C(=O)O)COCC2`: 179 to 181 °C.
Turning to `C=Cc1c(F)c(F)c(F)c2c1c(=O)c(C(=O)OCC)cn2C1CC1`, the melting point lay in the range of 188 to 189 °C.
In turn, `CCCCc1oc2ccccc2c1Cc1cc(Br)c(O[C@H](Cc2ccccc2)C(=O)O)c(Br)c1` yielded a melting point of 225 to 226 °C.
Regarding `O=C1OC(CCO)c2ccccc21` (stereo not drawn), the melting point is 122 to 124 °C.
For `COC1NC(=O)N(C2CCCCC2)C1=O` (stereo not drawn), the melting point lay within 135 to 137 °C.
`O=C1c2ccccc2C(O)N1CCCN1CCN(c2ccc(F)cc2)CC1` (stereo not drawn): the melting point turned out to be 155 °C.
As for `O=C1c2ccccc2C(=O)N1CCn1ccnc1`, the melting point was in the range of 151 to 153 °C.
`CC1CC(N)=NN1c1cccc(Cl)n1` (stereo not drawn) came in with a melting point of 105 to 107 °C.
For the molecule `CCCCc1ccc(-c2ncc(C#N)cn2)cc1`, the melting point was in the range of 109 to 110 °C.
In the case of `COC(=O)C(CCc1ccc(C#N)cc1)C(N)=O` (stereo not drawn) it was 125 °C; in that of `Cc1[nH]c2ccccc2c1[C@H]1CC[C@@H](N2CCN(c3cccc4[nH]ccc34)CC2)CC1`, 279 to 280 °C.
For the molecule `CCCCOCCOc1ccc(-c2ccc3c(c2)C=C(C(=O)Nc2ccc(OCc4nccn4CCC)cc2)CCN3CC(C)C)cc1`, the melting point lay in the range of 118 to 120 °C.
With `NNc1ncccc1-c1cccnc1`, the melting point was in the range of 104 to 107 °C.
For the molecule `CCCCCC(=O)OCC(=O)C1C(C)CC2C3=C(C(=O)CC21C)C1(C)C=CC(=O)C=C1C(F)C3` (stereo not drawn), the melting point worked out at 159 °C.
Take `CS(=O)(=O)c1ccc(-c2cc(-c3csc(N)n3)sc2-c2ccc(F)cc2)cc1`: the melting point was 243 to 245 °C.
As for `NC(=O)Nc1nc2n(n1)Cc1ccccc1-2`, the melting point lay in the range of 261 to 263 °C.
The same measure for `CC12CCCCC1CCC1C2CCC2(C)C(NCc3ccccc3)CCC12` (stereo not drawn): 85.5 to 87.5 °C; for `COc1ccc(-c2cc(Nn3cnnc3)ccc2C#N)cc1`: 176 to 177 °C; for `CC(=O)N[C@H]1CC[C@H](CCN2CCN(c3nccc4c3OCC4)CC2)CC1`: 195 °C.
In the case of `CNC(=N[N+](=O)[O-])NCCSCc1[nH]cnc1C` it was 112 to 114 °C; in that of `CCCCc1nnc(SC)n1Cc1ccc(-c2ccccc2-c2nnn[nH]2)cc1`, 100 to 102 °C; in that of `CCc1noc(-c2ncn(-c3cccc(OCc4ccccc4)c3)c2COC)n1`, 63 to 64 °C.
Molecule `c1ccc(N2c3ccccc3Sc3ccccc32)cc1` came in with a melting point of 93 to 94 °C.
Turning to `CC(CCC(=O)O)C1CCC2C3C(O)C(F)C4CC(O)CCC4(C)C3CCC12C` (stereo not drawn), the melting point fell in the range of 102 to 105 °C.
On to `CNC(=O)C1(CCC#N)c2ccccc2-c2ccccc21`, for which the melting point was 185 to 187 °C.
In turn, `CC1(C)OC(c2ccc(S(C)(=O)=O)cc2)=C(c2ccc3c(c2)OCO3)C1=O` registered a melting point of 178 to 179 °C.
For `COC(=O)c1nc(-c2ccc(Cl)cc2)cc(N(C)C)c1N`, the melting point fell in the range of 153 to 154 °C.
`O=C(Nc1cc(Cl)ccc1O)Nc1ccccc1C(F)(F)F` showed a melting point of 183 to 184 °C.
`CCCCCOC(=O)c1cc(O)nn1-c1ncccc1Cl` displayed a melting point of 172 to 173 °C.
As to `C[C@@H]1CCCN1CCc1ccc2cc(Br)ccc2n1`, the melting point fell in the range of 49 to 50 °C.
As for `CC(C)(C)OC(=O)N1CCC(C(=O)N2CCN(c3ccncn3)CC2)CC1`, the melting point was 159 to 163 °C.
Regarding `N#CC1C(=O)NC(=O)C(C(=O)O)C12CCCCC2` (stereo not drawn), the melting point lay in the range of 210 to 214 °C.
Turning to `C=CCOC(=O)COC(=O)c1c(Br)c(Br)c(C(=O)OCC(=O)OCC=C)c(Br)c1Br`, the melting point is 146 to 148 °C.
Molecule `CCOC(=O)C1=C(C)NC(C)=C(C(=O)OCC)C1c1ccc(-n2ccnc2)cc1` returned a melting point of 231 to 233 °C.
Regarding `C#CCCC(=O)N1c2ccccc2C(=O)Nc2cccnc21`, the melting point was 179 to 180 °C.
Consider `CC(C)(C)OC(=O)N[C@@H](Cc1ccc(C(=N)NC(=O)OCc2ccccc2)cc1)C(=O)O`, for which the melting point lay within 112 to 115 °C.
In turn, `O=c1c(-c2ccccc2)c(-c2ccccc2)sn1-c1ccccc1` registered a melting point of 175 to 176 °C.
For the molecule `CCCCc1nccc2ccc(C(=O)N[C@@H](Cc3cc(F)cc(F)c3)[C@H](O)CNCc3cccc(CC)c3)cc12`, the melting point lay within 109 to 110 °C.
`CC(=O)Nc1ccc2c(c1)N(C1CCN(CCc3ccc(F)cc3)CC1)CC2` registered a melting point of 148 to 150 °C.
The molecule `C[C@H]1CCCN(C(=O)[C@H]2Cc3cc(N4CCCCC4)ccc3N2c2cccnn2)C1` showed a melting point of 226 to 228 °C.
`CC1(C)Cc2c(ccc3c2C(c2cccc(-c4ccc(C(N)=O)cc4)c2)=NCC3(C)C)O1` returned a melting point of 284 to 296 °C.
In the case of `NC1CCN(c2ncc3ncnc(Nc4ccc(OCc5ccccc5)cc4)c3n2)CC1` it was 150 °C; in that of `Cc1cc2c(cc1C)C(=O)C(CC(=O)O)CC2` (stereo not drawn), 193 to 194 °C.
As to `Cc1ccc(O)c(C)c1[N+](=O)[O-]`, the melting point is 99 to 101 °C.
In the case of `O=C1CC(c2cccc(-n3ccnc3)c2)=Nc2cc(OCCO)c(C#Cc3ccc(F)cc3)cc2N1` it was 220 to 222 °C.
`Clc1ccc2c(c1)NCc1ccccc1S2` returned a melting point of 125 to 127 °C.
For the molecule `CC(c1cc(C(C)(C)C)c(O)c(C(C)(C)C)c1)N(O)C(N)=O` (stereo not drawn), the melting point was 162 to 164 °C.
In the case of `CCOC(=O)c1cc2ccc([Si](C)(C)C)cc2n1Cc1cccc(F)c1` it was 87 to 88 °C; in that of `CCOC(=O)C(=O)CCc1ccccc1`, 126 to 127 °C; in that of `Nc1nc(=O)n(C2C=CC(CO)O2)cc1F` (stereo not drawn), 206 °C.
In the case of `Cc1nc(N2CCC(Cc3ccc(C(F)(F)F)cc3)C2=O)sc1C(=O)NCc1ccccc1` (stereo not drawn), the melting point is 174 to 175 °C.
`COc1cc(C(=O)O)c(N)cc1C` displayed a melting point of 193 to 196 °C.
Take `Cn1c(S(=O)(=O)CCCl)nnc1S(=O)(=O)CCCl`: the melting point stood at 156 °C.
Regarding `CCS(=O)(=O)C(=CNc1ccc(NC=C(S(=O)(=O)CC)S(=O)(=O)CC)cc1)S(=O)(=O)CC`, the melting point was 265 to 268 °C.
`CP1(=O)c2ccccc2CN1c1ccccc1` (stereo not drawn): the melting point lay in the range of 94 to 97 °C.
Molecule `COC1(c2cccc(Sc3ccc(C(C)=NO)cc3)c2)CCN(CC(F)(F)F)C1` (stereo not drawn) came in with a melting point of 86 to 88 °C.
`O=C(O)c1ccccc1C(=O)c1cc(-c2ccccc2)c(O)c(-c2ccccc2)c1`: the melting point turned out to be 234 °C.
For `CNC(=S)N(C)Cc1cccnc1`, the melting point was in the range of 86 to 87 °C.
The same measure for `Cc1nn(-c2ccccc2)c(=O)c2c1c1c(Br)cccc1n2C`: 189 to 190 °C; for `CN1C(C(=O)Nc2cccccc2=O)=C(O)c2sccc2S1(=O)=O`: 242 to 245 °C; for `O=[N+]([O-])c1cc(Cl)c(Cl)cc1N[C@H]1C=C[C@@H](CO)C1`: 94.5 to 96.5 °C.
The molecule `OCC(O)C1OC(Sc2ccccc2)C(O)C1O` (stereo not drawn) returned a melting point of 105 to 107 °C.
The same measure for `CCN(CC)C(=O)n1ccc(Sc2ccc(Br)cc2Cl)n1`: 77 to 79 °C; for `CC12CC(=NO)C(C)(C)C1C(O)C2` (stereo not drawn): 130 to 133 °C.
For `Cc1cc(C#N)cc(C)c1OCCCCCc1cc(CO)no1`, the melting point was 63 to 64 °C.
In the case of `O=C(CCC(CSc1ccc2ccccc2c1)C(=O)O)OCc1ccccc1` (stereo not drawn) it was 94 to 95 °C.
In the case of `CCCCCCCCCCCCC(Oc1ccc(NS(=O)(=O)CCCC)cc1)C(=O)Nc1c(C)cc(C)c(-c2n[nH]c3cc(C(C)(C)C)nn23)c1C` (stereo not drawn), the melting point lay in the range of 117 to 120 °C.
In the case of `O=S(=O)(Cc1cccc2ccccc12)c1ccccc1` it was 89 °C; in that of `CNc1c(F)cc2c(=O)c(C(=O)O)cn(-c3nc(N)c(F)cc3F)c2c1Cl`, 251 to 253 °C; in that of `COc1cc(C(=O)N(C(C)C)C(C)C)ccc1OCCCCCOc1ccc(C=NN)cc1`, 112 to 114 °C.
The same measure for `COC=C(C(=O)OC)c1csc2ccc(COc3ccccc3)cc12`: 130 °C; for `CCOC(=O)/C=C/c1ccc(OCCOC)c(C)c1OCc1ccc(Cl)cc1Cl`: 92 to 92.5 °C.
`O=C1OCc2ccc(CO)cc21` returned a melting point of 107 to 108 °C.
The molecule `Clc1ccc(C2CNCCN2)cc1Cl` (stereo not drawn) came in with a melting point of 74 to 76 °C.
In the case of `Cc1ccc(S(=O)(=O)N2[C@@H](C(=O)O)CC[C@H]2c2ccc(F)cc2)cc1` (racemic), the melting point came out at 166 °C.
`Fc1ccccc1CNc1nc(Cl)ncc1F` registered a melting point of 117 to 118 °C.
In the case of `CN(Cc1ccccc1)c1ccc(C(=O)O)nc1` it was 168 to 173 °C; in that of `CC(=O)Nc1nc(C(N)=O)cs1`, more than 250 °C.
